Results as given in ChEMBL document CHEMBL3046698, “Synergistic application of target structure-based alignment and 3D-QSAR study of protein tyrosine phosphatase 1B (PTP1B) inhibitors” (Med Chem Res, 2011).
Where “and” joins values, the source holds several entries; their conditions need not be identical. Equal values may be shown once.

Target: T1, Tyrosine-protein phosphatase non-receptor type 1 (Homo sapiens, UniProt P18031)
T1 sequence (P18031 whole entry): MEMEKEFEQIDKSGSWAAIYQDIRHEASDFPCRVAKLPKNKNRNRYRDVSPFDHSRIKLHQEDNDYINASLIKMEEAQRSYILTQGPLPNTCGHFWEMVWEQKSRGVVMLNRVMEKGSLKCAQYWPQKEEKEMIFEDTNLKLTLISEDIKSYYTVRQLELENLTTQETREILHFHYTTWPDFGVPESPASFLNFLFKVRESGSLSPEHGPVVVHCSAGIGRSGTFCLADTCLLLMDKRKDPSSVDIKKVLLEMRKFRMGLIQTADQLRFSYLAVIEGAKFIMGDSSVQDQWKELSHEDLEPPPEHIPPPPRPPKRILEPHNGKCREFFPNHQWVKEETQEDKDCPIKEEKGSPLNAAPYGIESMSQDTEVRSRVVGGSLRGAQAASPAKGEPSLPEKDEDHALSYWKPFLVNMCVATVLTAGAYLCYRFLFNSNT
Description: Inhibition of PTP1B (unknown origin)

Ki	SMILES
17 µM	CC(=O)C(=O)N(c1ccccc1C(=O)O)c1cccc2ccc(O)cc12
24 µM	CC(=O)C(=O)N(c1ccccc1Cc1ccccc1)c1ccccc1C(=O)O
38.9 µM and 39 µM	CC(=O)C(=O)N(c1ccc2ccccc2c1)c1ccccc1C(=O)O
17 µM	CC(=O)C(=O)N(c1ccccc1CCO)c1ccccc1C(=O)O
24 µM	CC(=O)C(=O)N(c1ccccc1C(=O)O)c1cccc2ccccc12
60.3 µM and 60 µM	CCc1ccccc1N(C(=O)C(C)=O)c1ccccc1C(=O)O

More lines, now with the values behind:

SMILES	Ki
CC(=O)C(=O)N(c1ccccc1C(=O)O)c1cccc2c1CCCC2	74.1 µM and 74 µM
COC(=O)c1c(O)cccc1OCCCCNC(=O)C(Cc1ccc(N(CC(C(=O)O)c2ccccc2)C(=O)C(=O)O)cc1)NC(=O)OC(C)(C)C (stereo unspecified)	15.1 µM and 15.2 µM
COC(=O)c1c(O)cccc1OCCCCNC(=O)[C@H](Cc1ccc(OC(C(N)=O)C(=O)O)cc1)NC(=O)OC(C)(C)C (stereo partly specified)	13.8 µM
COC(=O)c1c(O)cccc1OCCCCNC(=O)[C@H](Cc1ccc(OC(C)C(=O)O)c(C(=O)O)c1)NC(=O)[C@H](Cc1ccccc1)NC(=O)OC(C)(C)C (stereo partly specified)	0.162 µM
CC(=O)C(=O)N(c1ccccc1C(=O)O)c1ccccc1N1CCCCC1	14.1 µM and 14 µM
CCC(CC(=O)O)N(C(=O)C(=O)O)c1ccc(CC(NC(=O)OC(C)(C)C)C(=O)NCCCCOc2cccc(O)c2C(=O)OC)cc1 (stereo unspecified)	1.82 µM and 1.8 µM
CCc1cc(C[C@H](NC(C)=O)C(=O)N[C@H](CCSC)C(=O)O)ccc1N(C(=O)C(=O)O)c1ccccc1C(=O)O	1.74 µM and 1.7 µM
CC(=O)C(=O)N(c1ccccc1C(=O)O)c1ccccc1C(C)C	35.5 µM and 35 µM
CC(=O)C(=O)N(c1ccccc1C(=O)O)c1cccc(C)c1C	93.3 µM and 93 µM
CCc1cc(C[C@H](NC(C)=O)C(=O)NCCCCC(=O)NCCc2ccccc2)ccc1N(C(=O)C(=O)O)c1ccccc1C(=O)O	3.39 µM and 3.4 µM
CCc1cc(C[C@H](NC(C)=O)C(=O)NCc2ccc(OC)cc2)ccc1N(C(=O)C(=O)O)c1ccccc1C(=O)O	4.79 µM and 4.7 µM
CCc1cc(C[C@H](NC(C)=O)C(=O)NCCCCC(=O)NC(Cc2ccccc2)C(N)=O)ccc1N(C(=O)C(=O)O)c1ccccc1C(=O)O (stereo partly specified)	1.29 µM and 1.3 µM
CC(=O)C(=O)N(c1ccccc1/C=C/C(N)=O)c1ccccc1C(=O)O	11 µM
CCc1cc(C[C@H](NC(C)=O)C(=O)NCc2ccc(Cl)cc2)ccc1N(C(=O)C(=O)O)c1ccccc1C(=O)O	1.2 µM
COC(=O)c1c(O)cccc1OCCCCNC(=O)[C@H](Cc1ccc(OC(C(=O)O)C(=O)NC2CC2)cc1)NC(=O)OC(C)(C)C (stereo partly specified)	8.51 µM
